The results in this text go back to patent US10800767B2, “Thyroid hormone receptor beta agonist compounds” (Terns, Inc., priority 2018, dated 2020).

Structures are written as SMILES.

Assay [1] deals with TR beta-LBD (thyroid hormone receptor beta) (Homo sapiens (Human), UniProt P10828). Briefly: LanthaScreen TR-FRET Thyroid Receptor beta Coactivator Assay (agonist screening). To be noted: for THRβ-Selectivity: THR beta over THR alpha, derived from T3-selectivity normalized data; for EC50: TR-FRET coactivator assay, TR beta-LBD 1.0 nM, 2 hour incubation, average of duplicate runs, read-out: EC50 THRβ-FRET. Format: biochemical. On the procedure: (§1) Example B1: Time-Resolved Fluorescence Resonance Energy Transfer (TR-FRET) Assay for Thyroid Hormone Receptor Agonist Screening
(§2) LanthaScreen™ TR-FRET Thyroid Receptor alpha Coactivator Assay kit (ThermoFisher) and LanthaScreen™ TR-FRET Thyroid Receptor beta Coactivator Assay kit (ThermoFisher) were used for agonist compound screening. Compounds in DMSO were diluted using ECHO Liquid Handler (Labcyte Inc.) into 384 plates in 10-point 3-fold series in duplicate (5 micro M final top concentration). Buffer C (ThermoFisher) was added to each well before the 4× mixture of fluorescein-SCR2-2 coactivator (200 nM final concentration), Terbium-labeled anti-GST antibody (2 nM final concentration), and TR alpha-LBD (0.4 nM final concentration) or TR beta-LBD (1.0 nM final concentration) was added. After 2 hour incubation at room temperature in dark, the TR-FRET signal was measured on an EnVision plate reader (PerkinElmer) with excitation at 340 nm and dual emission readout at 495 and 520 nm with the delay time of 100 micro second and the integration time of 200 micro second. The ratio of emission signal at 520 and at 495 was used to calculate EC50 using GraphPad Prism (GraphPad Software). In every batch of compound screening, T3 (L-3,3′,5-Triiodothyronine sodium salt, >95%) (Calbiochem) was used as reference compound. The EC50 of T3 measured were within 3-fold of the reference value provided by the assay kit manufacturer (ThermoFisher Scientific). The Z′ factors measured in every batch of screening using T3 as high percent effect (HPE) control and 0.5% DMSO as zero percent effect (ZPE) control were in the range of 0.5 to 0.8. Compounds' THR-beta selectivity values are derived from T3-selectivity normalized data.
For orientation: In TR-FRET formats the signal depends on donor and acceptor labels being close together.

Assay [2] addresses TR alpha-LBD (thyroid hormone receptor alpha) (Homo sapiens (Human), UniProt P10827). Kind of assay: LanthaScreen TR-FRET Thyroid Receptor alpha Coactivator Assay (agonist screening). It counts as biochemical. To be noted: TR alpha-LBD 0.4 nM, 2 hour incubation, average of duplicate runs, read-out: EC50 THRα-FRET. The protocol:
as §1, §2

Sequence of TR beta-LBD (thyroid hormone receptor beta) (P10828 217-461): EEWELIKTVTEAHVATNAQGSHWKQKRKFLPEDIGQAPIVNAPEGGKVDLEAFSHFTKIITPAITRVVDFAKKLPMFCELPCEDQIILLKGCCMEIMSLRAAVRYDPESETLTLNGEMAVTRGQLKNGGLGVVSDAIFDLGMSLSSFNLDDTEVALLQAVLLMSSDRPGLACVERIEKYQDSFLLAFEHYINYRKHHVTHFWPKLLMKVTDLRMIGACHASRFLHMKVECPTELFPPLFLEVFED
Sequence of TR alpha-LBD (thyroid hormone receptor alpha) (P10827 other isoform, or with tags, fused parts or gaps del 1-162, other chains not shown): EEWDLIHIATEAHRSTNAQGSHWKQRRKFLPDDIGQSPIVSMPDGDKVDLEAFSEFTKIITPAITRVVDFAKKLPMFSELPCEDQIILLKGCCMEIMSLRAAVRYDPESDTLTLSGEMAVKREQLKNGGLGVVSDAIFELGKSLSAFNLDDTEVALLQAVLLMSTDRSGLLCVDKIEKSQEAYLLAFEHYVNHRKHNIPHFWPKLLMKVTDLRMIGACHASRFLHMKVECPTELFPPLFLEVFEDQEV

Turning to `CC(C)c1cc(Oc2c(Cl)cc(-c3cc(=O)[nH]o3)cc2Cl)n[nH]c1=O` [Example 8, 5-(3,5-dichloro-4-((5-isopropyl-6-oxo-1,6-dihydropyridazin-3-yl)oxy)phenyl)isoxazol-3(2H)-one], in assay [1], the THRβ-Selectivity was determined as 7 and the EC50 came to 896 nM. In assay [2], the EC50 is 2300 nM.
Take `O=C(Nc1cc(Cl)c(Oc2cc(C3CC3)c(=O)[nH]n2)c(Cl)c1)c1noc(=O)[nH]1` [Example 25, N-(3,5-dichloro-4-((5-cyclopropyl-6-oxo-1,6-dihydropyridazin-3-yl)oxy)phenyl)-5-oxo-4,5-dihydro-1,2,4-oxadiazole-3-carboxamide]: the THRβ-Selectivity in assay [1] was 42.1. Also, the figures for the EC50 in assay [1] and in assay [2] were 231 nM and 2420 nM, respectively.
Regarding `CC(C)c1cc(Oc2c(Cl)cc(NC(=O)c3noc(=O)[nH]3)c(F)c2Cl)nn(C)c1=O` [Example 26, N-(3,5-dichloro-2-fluoro-4-((5-isopropyl-1-methyl-6-oxo-1,6-dihydropyridazin-3-yl)oxy)phenyl)-5-oxo-4,5-dihydro-1,2,4-oxadiazole-3-carboxamide], in assay [1], the THRβ-Selectivity came out at 44.6 and the EC50 was determined as 58.1 nM. Also, the EC50 in assay [2] is 699 nM.
The molecule `CCC(O)c1cc(Oc2c(Cl)cc(NC(=O)c3noc(=O)[nH]3)cc2Cl)n[nH]c1=O` (stereo not drawn) [Example 32, N-(3,5-dichloro-4-((5-(1-hydroxypropyl)-6-oxo-1,6-dihydropyridazin-3-yl)oxy)phenyl)-5-oxo-4,5-dihydro-1,2,4-oxadiazole-3-carboxamide] yielded a THRβ-Selectivity in assay [1] of 77.9. Further, the results for the EC50 in assay [1] and in assay [2] were 86.4 nM and 1550 nM, respectively.
For the molecule `CC(C)c1cc(Oc2c(Cl)cc(-c3noc(=O)[nH]3)cc2Cl)n[nH]c1=O` [Example 9, 3-[3,5-dichloro-4-[(5-isopropyl-6-oxo-1H-pyridazin-3-yl)oxy]phenyl]-4H-1,2,4-oxadiazol-5-one], in assay [1], the THRβ-Selectivity is reported as 0.7 and the EC50 worked out at 290 nM. Further, the EC50 in assay [2] is 126 nM.
`CC(C)c1cc(Oc2c(Cl)cc(NCc3noc(=O)[nH]3)cc2Cl)nn(C)c1=O` [Example 1, 3-(((3,5-dichloro-4-((5-isopropyl-1-methyl-6-oxo-1,6-dihydropyridazin-3-yl)oxy)phenyl)amino)methyl)-1,2,4-oxadiazol-5(4H)-one] registered a THRβ-Selectivity in assay [1] of 17.2. The EC50 is 7.6 nM in assay [1] and 49.5 nM in assay [2].
As for `CC(C)c1cc(Oc2c(Cl)cc(NC(=O)c3noc(=O)[nH]3)cc2Cl)nn(C)c1=O` [Example 4, N-(3,5-dichloro-4-((5-isopropyl-1-methyl-6-oxo-1,6-dihydropyridazin-3-yl)oxy)phenyl)-5-oxo-4,5-dihydro-1,2,4-oxadiazole-3-carboxamide], in assay [1], the THRβ-Selectivity stood at 31.7 and the EC50 stood at 27.1 nM. The concentration for a half-maximal effect (EC50) in assay [2] turned out to be 314 nM.
Turning to `CC(C)c1cc(Cc2c(Cl)cc(NCc3noc(=O)[nH]3)cc2Cl)n[nH]c1=O` [Example 15, 3-(((3,5-dichloro-4-((5-isopropyl-6-oxo-1,6-dihydropyridazin-3-yl)methyl)phenyl)amino)methyl)-1,2,4-oxadiazol-5(4H)-one], in assay [1], the THRβ-Selectivity amounted to 11.7 and the EC50 was 31.5 nM. The EC50 in assay [2] was 102 nM.
The like results for `CC(C)c1cc(Cc2c(Cl)cc(NCc3noc(=O)[nH]3)cc2Cl)nn(C)c1=O` [Example 16, 3-(((3,5-dichloro-4-((5-isopropyl-1-methyl-6-oxo-1,6-dihydropyridazin-3-yl)methyl)phenyl)amino)methyl)-1,2,4-oxadiazol-5(4H)-one] were, in that order, 6.7, 44.2 nM and 82.4 nM.
In turn, `Cc1cc(NC(=O)c2noc(=O)[nH]2)cc(C)c1Cc1cc(C(C)C)c(=O)[nH]n1` [Example 30, N-(4-((5-isopropyl-6-oxo-1,6-dihydropyridazin-3-yl)methyl)-3,5-dimethylphenyl)-5-oxo-4,5-dihydro-1,2,4-oxadiazole-3-carboxamide] gave a THRβ-Selectivity in assay [1] of 14.3. Also, the EC50 came out at 821 nM in assay [1] and 3110 nM in assay [2].
Take `CC(C)c1cc(Oc2c(Cl)cc(NCc3noc(=O)[nH]3)cc2Cl)n[nH]c1=O` [Example 5, 3-(((3,5-dichloro-4-((5-isopropyl-6-oxo-1,6-dihydropyridazin-3-yl)oxy)phenyl)amino)methyl)-1,2,4-oxadiazol-5(4H)-one]: in assay [1], the THRβ-Selectivity amounted to 27.8 and the EC50 came out at 74.2 nM. Moreover, the EC50 in assay [2] came out at 469 nM.
`CC(C)c1cc(Oc2c(Cl)cc(NC(=O)c3noc(=O)[nH]3)c(F)c2Cl)n[nH]c1=O` [Example 34, N-(3,5-dichloro-2-fluoro-4-((5-isopropyl-6-oxo-1,6-dihydropyridazin-3-yl)oxy)phenyl)-5-oxo-4,5-dihydro-1,2,4-oxadiazole-3-carboxamide] showed a THRβ-Selectivity in assay [1] of 10.9. Moreover, the EC50 was found to be 166 nM in assay [1] and 577 nM in assay [2].
As to `CC(C)c1cc(Oc2c(Cl)cc(NC(=O)c3noc(=O)[nH]3)c3c2CCC3)nn(C)c1=O` [Example 24, N-(6-chloro-7-((5-isopropyl-1-methyl-6-oxo-1,6-dihydropyridazin-3-yl)oxy)-2,3-dihydro-1H-inden-4-yl)-5-oxo-4,5-dihydro-1,2,4-oxadiazole-3-carboxamide], in assay [1], the THRβ-Selectivity worked out at 39.5 and the EC50 came out at 188 nM. In addition, the EC50 in assay [2] was 2050 nM.
Take `CC(C)c1cc(C(=O)c2c(Cl)cc(NC(=O)c3noc(=O)[nH]3)cc2Cl)nn(C)c1=O` [Example 17, N-(3,5-dichloro-4-(5-isopropyl-1-methyl-6-oxo-1,6-dihydropyridazine-3-carbonyl)phenyl)-5-oxo-4,5-dihydro-1,2,4-oxadiazole-3-carboxamide]: the THRβ-Selectivity in assay [1] is >7.2. In addition, the EC50 was 2110 nM in assay [1] and > 5000 nM in assay [2].
Regarding `CC[C@@H](O)c1cc(Oc2c(Cl)cc(NC(=O)c3noc(=O)[nH]3)cc2Cl)n[nH]c1=O` [Example 32P1, (R)—N-(3,5-dichloro-4-((5-(1-hydroxypropyl)-6-oxo-1,6-dihydropyridazin-3-yl)oxy)phenyl)-5-oxo-4,5-dihydro-1,2,4-oxadiazole-3-carboxamide], in assay [1], the THRβ-Selectivity was found to be 27.9 and the EC50 is 450 nM. Further, the EC50 in assay [2] came to 4230 nM.
As to `C[C@@H](O)c1cc(Oc2c(Cl)cc(NC(=O)c3noc(=O)[nH]3)cc2Cl)n[nH]c1=O` [Example 29P1, (R)—N-(3,5-dichloro-4-((5-(1-hydroxyethyl)-6-oxo-1,6-dihydropyridazin-3-yl)oxy)phenyl)-5-oxo-4,5-dihydro-1,2,4-oxadiazole-3-carboxamide], the THRβ-Selectivity in assay [1] is >10.4. Moreover, the values for the EC50 in assay [1] and in assay [2] were 2640 nM and > 5000 nM, respectively.
For `Cn1nc(Oc2c(Cl)cc(NC(=O)c3noc(=O)[nH]3)cc2Cl)cc(C(C)(C)O)c1=O` [Example 37, N-(3,5-dichloro-4-((5-(2-hydroxypropan-2-yl)-1-methyl-6-oxo-1,6-dihydropyridazin-3-yl)oxy)phenyl)-5-oxo-4,5-dihydro-1,2,4-oxadiazole-3-carboxamide], in that order: 15.5, 34.5 nM and 212 nM.
As to `CC(CO)c1cc(Oc2c(Cl)cc(NC(=O)c3noc(=O)[nH]3)cc2Cl)n[nH]c1=O` (stereo not drawn) [Example 36, N-(3,5-dichloro-4-((5-(1-hydroxypropan-2-yl)-6-oxo-1,6-dihydropyridazin-3-yl)oxy)phenyl)-5-oxo-4,5-dihydro-1,2,4-oxadiazole-3-carboxamide], in assay [1], the THRβ-Selectivity was >15.7 and the EC50 was 468 nM. The EC50 in assay [2] was > 5000 nM.
Take `CC(C)c1cc(Oc2c(Cl)cc(NC(=O)c3noc(=O)[nH]3)cc2Cl)n[nH]c1=O` [Example 23, N-(3,5-dichloro-4-((5-isopropyl-6-oxo-1,6-dihydropyridazin-3-yl)oxy)phenyl)-5-oxo-4,5-dihydro-1,2,4-oxadiazole-3-carboxamide]: in assay [1], the THRβ-Selectivity amounted to 67.3 and the EC50 turned out to be 87.3 nM. Also, in assay [2], the EC50 worked out at 1320 nM.
For the molecule `CC(C)c1cc(Oc2c(Cl)cc(OCc3noc(=O)[nH]3)cc2Cl)nn(C)c1=O` [Example 6, 3-((3,5-dichloro-4-((5-isopropyl-1-methyl-6-oxo-1,6-dihydropyridazin-3-yl)oxy)phenoxy)methyl)-1,2,4-oxadiazol-5(4H)-one], in assay [1], the THRβ-Selectivity is 3.6 and the EC50 is 58.1 nM. Also, in assay [2], the EC50 was 78 nM.

In general, EC50 refers to the midpoint of the concentration-response curve.
